This passage reports IC50 results from patent US20240247035A1, “STAPLED ANTIMICROBIAL PEPTIDES (STAMPS) AND USES THEREOF” (Lytica Therapeutics, Inc., priority 2021, published 2024).

A short description of data set [1]: 90 minute cytotoxicity assay (LDH release), renal toxicity. The note with it: human. The format is cell-based. In a few lines:
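RPTEC in growth-factor-supplemented MEM were exposed overnight-plated to serial dilutions of StAMPs (from 5 mg/mL water stock) or vehicle for 90 min at 37 °C. Released LDH in medium was measured with LDH reagent for 10 min, absorbance at 490 nm.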

The nature of data set [2]: 48 hours cytotoxicity assay (CellTiter-Glo), liver toxicity. The class given is cell-based. The note with it: human. In a few lines:
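HepG2 cells (EMEM, 10% FBS) attached 4 h, then exposed to serial dilutions of StAMPs (from 5 mg/mL water stock) or vehicle for 48 h at 37° C. Viability read by CellTiter-Glo luminescence after 10 min at room temperature.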
For orientation: Cellular ATP, detected with luciferase, serves as a proxy for viable cell number.

Each structure is given as a SMILES string. ≈ marks a conversion by molar mass, not a printed value. Bridge positions count the residues as written; N and C are the ends. Square brackets hold non-standard residues; d marks the D form. Peptide text beside a SMILES is read from it. S5 = C=CCCC[C@](C)(N)C(=O)O A value given as a limit tells only on which side of the number the result lay.

One may read the IC50 as the concentration needed to halve the response being measured. Low readings indicate greater potency in that assay, high ones weaker potency in that assay. Compound `CC[C@H](C)[C@H](NC(=O)[C@H](CCCCN)NC(=O)[C@H](CCCCN)NC(=O)CNC(=O)[C@H](CCCCN)NC(=O)[C@]1(C)CCCC=CCCC[C@](C)(NC(=O)CN)C(=O)N[C@@H](Cc2ccccc2)C(=O)N[C@@H](CO)C(=O)N[C@@H](CCCCN)C(=O)N1)C(=O)N[C@@H](CCCCN)C(=O)N[C@@H](CC(N)=O)C(=O)N[C@@H](CC(C)C)C(=O)N[C@@]1(C)CCCC=CCCC[C@@](C)(C(=O)N[C@@H](CCCCN)C(=O)NCC(N)=O)NC(=O)CNC(=O)[C@H](CO)NC(=O)[C@H]([C@@H](C)CC)NC1=O` [compound 1] (H-G[S5]FSK[S5]KGKKIKNL[S5]ISG[S5]KG-NH2; staple 2-6, 15-19) had a concentration for half-maximal inhibition (IC50) at 90 min in data set [1] of 48 µg/mL (≈ 21 µM). Also, half-maximal inhibition in data set [2] (IC50 at 48 hours) was put at 47 µg/mL (≈ 20.5 µM).

Compound `CC[C@H](C)[C@H](NC(=O)[C@H](CCCCN)NC(=O)[C@H](CCCCN)NC(=O)CNC(=O)[C@H](C)NC(=O)[C@]1(C)CCCC=CCCC[C@](C)(NC(=O)CN)C(=O)N[C@@H](Cc2ccccc2)C(=O)N[C@@H](CO)C(=O)N[C@@H](CCCCN)C(=O)N1)C(=O)N[C@@H](CCCCN)C(=O)N[C@@H](CC(N)=O)C(=O)N[C@@H](CC(C)C)C(=O)N[C@@]1(C)CCCC=CCCC[C@@](C)(C(=O)N[C@@H](CCCCN)C(=O)N[C@@H](CC(N)=O)C(N)=O)NC(=O)CNC(=O)[C@H](CO)NC(=O)[C@H]([C@@H](C)CC)NC1=O` [compound 10] (H-G[S5]FSK[S5]AGKKIKNL[S5]ISG[S5]KN-NH2; staple 2-6, 15-19) returned an IC50 at 90 min in data set [1] of 18 µg/mL (≈ 7.86 µM). Moreover, the IC50 at 48 hours in data set [2] is 16 µg/mL (≈ 6.99 µM).

Compound `CC[C@H](C)[C@H](NC(=O)CN)C(=O)N[C@@H](Cc1ccccc1)C(=O)N[C@@H](CO)C(=O)N[C@@H](CCCCN)C(=O)N[C@@H](CC(C)C)C(=O)N[C@@]1(C)CCCC=CCCC[C@@](C)(C(=O)N[C@@H](CCCCN)C(=O)N[C@@H](CC(N)=O)C(=O)N[C@@H](CC(C)C)C(=O)N[C@@H](CC(C)C)C(=O)N[C@H](C(=O)N[C@@H](CO)C(=O)NCC(=O)N[C@@H](CC(C)C)C(=O)N[C@@H](CCCCN)C(=O)NCC(N)=O)[C@@H](C)CC)NC(=O)[C@H](CCCCN)NC(=O)[C@H](CCCCN)NC(=O)CNC1=O` [compound 40] (H-GIFSKL[S5]GKK[S5]KNLLISGLKG-NH2; staple 7-11) displayed an IC50 at 90 min in data set [1] of 11 µg/mL (≈ 4.89 µM). Further, half-maximal inhibition in data set [2] (IC50 at 48 hours) required 17 µg/mL (≈ 7.55 µM).

In turn, `CC[C@H](C)[C@H](NC(=O)[C@H](CCCCN)NC(=O)[C@H](CCCCN)NC(=O)CNC(=O)[C@H](CCCCN)NC(=O)[C@]1(C)CCCC=CCCC[C@](C)(NC(=O)CN)C(=O)N[C@@H](CCCCN)C(=O)N[C@@H](CO)C(=O)N[C@@H](CCCCN)C(=O)N1)C(=O)N[C@@H](CCCCN)C(=O)N[C@@H](CC(N)=O)C(=O)N[C@@H](CC(C)C)C(=O)N[C@@]1(C)CCCC=CCCC[C@@](C)(C(=O)N[C@@H](CCCCN)C(=O)N[C@@H](CC(N)=O)C(=O)NCC(=O)NCC(=O)NCC(=O)N[C@@H](CCC(=O)O)C(N)=O)NC(=O)[C@H](Cc2ccccc2)NC(=O)[C@H](CO)NC(=O)[C@H]([C@@H](C)CC)NC1=O` [compound 24] (H-G[S5]KSK[S5]KGKKIKNL[S5]ISF[S5]KNGGGE-NH2; staple 2-6, 15-19) showed an IC50 at 90 min in data set [1] of 112 µg/mL (≈ 41.2 µM). This compound also came in with an IC50 at 48 hours in data set [2] of 16 µg/mL (≈ 5.89 µM).

`CC[C@H](C)[C@@H]1NC(=O)[C@@](C)(NC(=O)[C@H](CC(C)C)NC(=O)[C@H](CC(N)=O)NC(=O)[C@H](CCCCN)NC(=O)[C@H](CC(C)C)NC(=O)[C@H](CCCCN)NC(=O)[C@H](CCCCN)NC(=O)CNC(=O)[C@H](C)NC(=O)[C@]2(C)CCCC=CCCC[C@](C)(NC(=O)CN)C(=O)N[C@@H](CCCCN)C(=O)N[C@@H](CO)C(=O)N[C@@H](CCCCN)C(=O)N2)CCCC=CCCC[C@@](C)(C(=O)N[C@@H](CCCCN)C(=O)NCC(N)=O)NC(=O)CNC(=O)[C@H](CO)NC1=O` [compound 12] (H-G[S5]KSK[S5]AGKKLKNL[S5]ISG[S5]KG-NH2; staple 2-6, 15-19): the IC50 at 90 min in data set [1] is > 200 µg/mL. Besides, 91 µg/mL (≈ 41.1 µM) corresponded to half-maximal inhibition in data set [2] (IC50 at 48 hours).

`CC[C@H](C)[C@H](NC(=O)[C@H](CCCCN)NC(=O)[C@H](CCCCN)NC(=O)CNC(=O)[C@H](CCCCN)NC(=O)[C@]1(C)CCCC=CCCC[C@](C)(NC(=O)CN)C(=O)N[C@@H](CCCCN)C(=O)N[C@@H](CO)C(=O)N[C@@H](CCCCN)C(=O)N1)C(=O)N[C@@H](CCCCN)C(=O)N[C@@H](CC(N)=O)C(=O)N[C@@H](CC(C)C)C(=O)N[C@@]1(C)CCCC=CCCC[C@@](C)(C(=O)N[C@@H](CCCCN)C(=O)N[C@@H](CC(N)=O)C(N)=O)NC(=O)[C@H](Cc2ccccc2)NC(=O)[C@H](CO)NC(=O)[C@H]([C@@H](C)CC)NC1=O` [compound 22] (H-G[S5]KSK[S5]KGKKIKNL[S5]ISF[S5]KN-NH2; staple 2-6, 15-19) came in with an IC50 at 90 min in data set [1] of 16 µg/mL (≈ 6.62 µM). Also, the IC50 at 48 hours in data set [2] was 67 µg/mL (≈ 27.7 µM).

`CC[C@H](C)[C@H](NC(=O)[C@H](CCCCN)NC(=O)[C@H](CCCCN)NC(=O)[C@H](CCCCN)NC(=O)[C@H](CCCCN)NC(=O)[C@]1(C)CCCC=CCCC[C@](C)(NC(=O)CN)C(=O)N[C@@H](Cc2ccccc2)C(=O)N[C@@H](CO)C(=O)N[C@@H](CCCCN)C(=O)N1)C(=O)N[C@@H](CCCCN)C(=O)N[C@@H](CC(N)=O)C(=O)N[C@@H](CC(C)C)C(=O)N[C@@]1(C)CCCC=CCCC[C@@](C)(C(=O)N[C@@H](CCCCN)C(=O)NCC(N)=O)NC(=O)CNC(=O)[C@H](CO)NC(=O)[C@H]([C@@H](C)CC)NC1=O` [compound 27] (H-G[S5]FSK[S5]KKKKIKNL[S5]ISG[S5]KG-NH2; staple 2-6, 15-19): in data set [1], the IC50 at 90 min was found to be 42 µg/mL (≈ 17.8 µM). The compound further came in with a 50% inhibitory concentration (IC50) at 48 hours in data set [2] of 35 µg/mL (≈ 14.8 µM).

As to `CC[C@H](C)[C@H](NC(=O)[C@H](CCCCN)NC(=O)[C@H](CCCCN)NC(=O)CNC(=O)[C@H](CCCCN)NC(=O)[C@]1(C)CCCC=CCCC[C@](C)(NC(=O)CN)C(=O)N[C@@H](CCCCN)C(=O)N[C@@H](C(C)C)C(=O)N[C@@H](CCCCN)C(=O)N1)C(=O)N[C@@H](CCCCN)C(=O)N[C@@H](CC(N)=O)C(=O)N[C@@H](CC(C)C)C(=O)N[C@@]1(C)CCCC=CCCC[C@@](C)(C(=O)N[C@@H](CCCCN)C(=O)NCC(N)=O)NC(=O)CNC(=O)[C@H](CO)NC(=O)[C@H]([C@@H](C)CC)NC1=O` [compound 6] (H-G[S5]KVK[S5]KGKKIKNL[S5]ISG[S5]KG-NH2; staple 2-6, 15-19), in data set [1], inhibition was half-maximal at 215 µg/mL (≈ 94.2 µM) (IC50 at 90 min). For the same compound, in data set [2], the IC50 at 48 hours worked out at 200 µg/mL (≈ 87.6 µM).

Take `CC[C@H](C)[C@H](NC(=O)[C@H](CCCCN)NC(=O)[C@H](CCCCN)NC(=O)CNC(=O)[C@H](CCCCN)NC(=O)[C@]1(C)CCCC=CCCC[C@](C)(NC(=O)CN)C(=O)N[C@@H](Cc2ccccc2)C(=O)N[C@@H](CO)C(=O)N[C@@H](CCCCN)C(=O)N1)C(=O)N[C@@H](CCCCN)C(=O)N[C@@H](CC(N)=O)C(=O)N[C@@H](CCCCN)C(=O)N[C@@]1(C)CCCC=CCCC[C@@](C)(C(=O)N[C@@H](CCCCN)C(=O)NCC(N)=O)NC(=O)CNC(=O)[C@H](CO)NC(=O)[C@H]([C@@H](C)CC)NC1=O` [compound 30] (H-G[S5]FSK[S5]KGKKIKNK[S5]ISG[S5]KG-NH2; staple 2-6, 15-19): the IC50 at 90 min in data set [1] was > 200 µg/mL. The IC50 at 48 hours in data set [2] was > 200 µg/mL.
